Measured values taken from US4340609A, “Amidinourea derivative veterinary compositions for suppression of parasitemia” (William H. Rorer, Inc., priority 1980, dated 1982).
Like-named read-outs stand apart in the source and are kept apart here.

How the values were obtained:
[1] = system: plasmodium berghei; test: suppression of parasitemia in mice infected with plasmodium berghei; assay type: in vivo; settings: for ED50: Plasmodium berghei, sc; for FACTOR (HIGHEST SED50 ÷ LOWEST SED50): factor of change, duration of action
Protocol: Five representative amidinoureas were tested in mice infected with plasmodium berghei. The five compounds tested are the following:
Groups of 10 mice each were used in seven doses totaling 70 mice per compound. The protozoal infection was induced by intraperitoneal injection of 5,000,000 parasitized blood cells from a donor. The compound was administered subcutaneously in doses ranging from 0.15 to 10 mg. per kg., suspended on 0.5% methacel solution (doses expressed as base). The compound was repeatedly injected on the day of inoculation (day 1), day 2 and day 3. Blood smears were performed on days 4, 5, 6 and 10.
Untreated control but infected mice developed fulminating parasitemia of as high as 35% on day 10 and deaths occurred from day 12 to 14.

[2] = LD50 in mice; settings: mouse, in vivo
[3] = triazine form/metabolite, cited from earlier work; for usefulness in therapy: malaria
[4] = 96 h, mice, s.c., levels of parasitemia, 4th day, read-out: SED50 (Suppressant Effective Dose50)
[5] = 120 h, mice, s.c., levels of parasitemia, 5th day, read-out: SED50 (Suppressant Effective Dose50)
[6] = 144 h, mice, s.c., levels of parasitemia, 6th day, read-out: SED50 (Suppressant Effective Dose50)
[7] = 240 h, mice, s.c., levels of parasitemia, 10th day, read-out: SED50 (Suppressant Effective Dose50)
[8] = mice, day 4 to day 10, read-out: HIGHEST SED50
[9] = mice, day 4 to day 10, read-out: LOWEST SED50
[10] = mice, s.c., 1.0 mg/kg on days 1-3, 4th day
[11] = mice, s.c., 1.0 mg/kg on days 1-3, 5th day
[12] = mice, s.c., 1.0 mg/kg on days 1-3, 6th day
[13] = mice, s.c., 1.0 mg/kg on days 1-3, 10th day
[14] = mice, s.c., 1.0 mg/kg on days 1-3, 12th day
[15] = mice, s.c., 1.0 mg/kg on days 1-3, 13th day
[16] = mice, s.c., 1.0 mg/kg on days 1-3, 14th day
[17] = mice, s.c., 2.0 mg/kg on days 1-3, 4th day
[18] = mice, s.c., 2.0 mg/kg on days 1-3, 5th day
[19] = mice, s.c., 2.0 mg/kg on days 1-3, 6th day
[20] = mice, s.c., 2.0 mg/kg on days 1-3, 10th day
[21] = mice, s.c., 2.0 mg/kg on days 1-3, 12th day
[22] = mice, s.c., 2.0 mg/kg on days 1-3, 13th day
[23] = mice, s.c., 2.0 mg/kg on days 1-3, 14th day
[24] = mice, s.c., 10.0 mg/kg on days 1-3, 4th day
[25] = mice, s.c., 10.0 mg/kg on days 1-3, 5th day
[26] = mice, s.c., 10.0 mg/kg on days 1-3, 6th day
[27] = mice, s.c., 10.0 mg/kg on days 1-3, 10th day
[28] = mice, s.c., 10.0 mg/kg on days 1-3, 12th day
[29] = mice, s.c., 10.0 mg/kg on days 1-3, 13th day
[30] = mice, s.c., 10.0 mg/kg on days 1-3, 14th day
[31] = mice, s.c., .15 mg/kg on days 1-3, 4th day
[32] = mice, s.c., .15 mg/kg on days 1-3, 5th day
[33] = mice, s.c., .15 mg/kg on days 1-3, 6th day
[34] = mice, s.c., .15 mg/kg on days 1-3, 10th day
[35] = mice, s.c., .15 mg/kg on days 1-3, 12th day
[36] = mice, s.c., .15 mg/kg on days 1-3, 13th day
[37] = mice, s.c., .15 mg/kg on days 1-3, 14th day
[38] = mice, s.c., .20 mg/kg on days 1-3, 4th day
[39] = mice, s.c., .20 mg/kg on days 1-3, 5th day
[40] = mice, s.c., .20 mg/kg on days 1-3, 6th day
[41] = mice, s.c., .20 mg/kg on days 1-3, 10th day
[42] = mice, s.c., .20 mg/kg on days 1-3, 12th day
[43] = mice, s.c., .20 mg/kg on days 1-3, 13th day
[44] = mice, s.c., .20 mg/kg on days 1-3, 14th day
[45] = mice, s.c., .30 mg/kg on days 1-3, 4th day
[46] = mice, s.c., .30 mg/kg on days 1-3, 5th day
[47] = mice, s.c., .30 mg/kg on days 1-3, 6th day
[48] = mice, s.c., .30 mg/kg on days 1-3, 10th day
[49] = mice, s.c., .30 mg/kg on days 1-3, 12th day
[50] = mice, s.c., .30 mg/kg on days 1-3, 13th day
[51] = mice, s.c., .30 mg/kg on days 1-3, 14th day
[52] = mice, s.c., .50 mg/kg on days 1-3, 4th day
[53] = mice, s.c., .50 mg/kg on days 1-3, 5th day
[54] = mice, s.c., .50 mg/kg on days 1-3, 6th day
[55] = mice, s.c., .50 mg/kg on days 1-3, 10th day
[56] = mice, s.c., .50 mg/kg on days 1-3, 12th day
[57] = mice, s.c., .50 mg/kg on days 1-3, 13th day
[58] = mice, s.c., .50 mg/kg on days 1-3, 14th day

CCCNC(=O)NC(=N)Nc1c(Cl)cccc1Cl [Compound A, 1-(2,6-dichlorophenylamidino)-3-n-propylurea]
ED50 [1, 4]: 0.71 mg/kg | ED50 [1, 5]: 1.2 mg/kg | ED50 [1, 6]: 1.05 mg/kg | ED50 [1, 7]: 1.58 mg/kg | ED50 [1, 8]: 1.58 mg/kg | ED50 [1, 9]: 0.71 mg/kg | FACTOR (HIGHEST SED50 ÷ LOWEST SED50) ([1]; day 4 to day 10): 2.23 | duration of action ([1]; mice, among the five compounds): longest duration of action | SED50 rank ([1]; mice, day 10, among the five compounds): lowest SED50 on day 10 | Mean % Parasitemia [1, 10]: 2.50% | Mean % Suppression [1, 10]: 52.3% | Mean % Parasitemia [1, 11]: 4.20% | Mean % Suppression [1, 11]: 42.5% | Mean % Parasitemia [1, 12]: 4.60% | Mean % Suppression [1, 12]: 50.5% | Mean % Parasitemia [1, 13]: 20.4% | Mean % Suppression [1, 13]: 42.5% | % died [1, 14]: 0% | % died [1, 15]: 20% | % died [1, 16]: 40% | Mean % Parasitemia [1, 17]: 2.25% | Mean % Suppression [1, 17]: 57.1% | Mean % Parasitemia [1, 18]: 3.00% | Mean % Suppression [1, 18]: 59.0% | Mean % Parasitemia [1, 19]: 3.80% | Mean % Suppression [1, 19]: 59.1% | Mean % Parasitemia [1, 20]: 16.5% | Mean % Suppression [1, 20]: 53.5% | % died [1, 21]: 0% | % died [1, 22]: 0% | % died [1, 23]: 20% | Mean % Parasitemia [1, 24]: 0% | Mean % Suppression [1, 24]: 100.0% | Mean % Parasitemia [1, 25]: 0% | Mean % Suppression [1, 25]: 100.0% | Mean % Parasitemia [1, 26]: 0% | Mean % Suppression [1, 26]: 100.0% | Mean % Parasitemia [1, 27]: 0% | Mean % Suppression [1, 27]: 100.0% | % died [1, 28]: 0% | % died [1, 29]: 0% | % died [1, 30]: 0% | Mean % Parasitemia [1, 31]: 5.00% | Mean % Suppression [1, 31]: 4.8% | Mean % Parasitemia [1, 32]: 6.90% | Mean % Suppression [1, 32]: 5.5% | Mean % Parasitemia [1, 33]: 8.10% | Mean % Suppression [1, 33]: 12.9% | Mean % Parasitemia [1, 34]: 33.02% | Mean % Suppression [1, 34]: 7.0% | % died [1, 35]: 40% | % died [1, 36]: 60% | % died [1, 37]: 80% | Mean % Parasitemia [1, 38]: 4.00% | Mean % Suppression [1, 38]: 23.8% | Mean % Parasitemia [1, 39]: 6.80% | Mean % Suppression [1, 39]: 6.8% | Mean % Parasitemia [1, 40]: 7.50% | Mean % Suppression [1, 40]: 19.4% | Mean % Parasitemia [1, 41]: 30.1% | Mean % Suppression [1, 41]: 15.2% | % died [1, 42]: 0% | % died [1, 43]: 20% | % died [1, 44]: 20% | Mean % Parasitemia [1, 45]: 3.25% | Mean % Suppression [1, 45]: 38.1% | Mean % Parasitemia [1, 46]: 6.30% | Mean % Suppression [1, 46]: 13.7% | Mean % Parasitemia [1, 47]: 7.20% | Mean % Suppression [1, 47]: 22.6% | Mean % Parasitemia [1, 48]: 28.5% | Mean % Suppression [1, 48]: 19.7% | % died [1, 49]: 0% | % died [1, 50]: 20% | % died [1, 51]: 20% | Mean % Parasitemia [1, 52]: 2.75% | Mean % Suppression [1, 52]: 47.6% | Mean % Parasitemia [1, 53]: 5.00% | Mean % Suppression [1, 53]: 31.5% | Mean % Parasitemia [1, 54]: 5.40% | Mean % Suppression [1, 54]: 41.9% | Mean % Parasitemia [1, 55]: 24.8% | Mean % Suppression [1, 55]: 30.1% | % died [1, 56]: 0% | % died [1, 57]: 0% | % died [1, 58]: 40% | LD50 [2]: > 600 mg/kg

CNC(=N)NC(=O)Nc1c(C)cc(Br)cc1Cl.Cl [Compound C, 1-(4-bromo-2-chloro-6-methylphenyl)-3-methylamidinourea hydrochloride]
ED50 [1, 4]: 1.12 mg/kg | ED50 [1, 5]: 1.12 mg/kg | ED50 [1, 6]: 1.39 mg/kg | ED50 [1, 7]: 3.99 mg/kg | ED50 [1, 8]: 3.99 mg/kg | ED50 [1, 9]: 1.12 mg/kg | FACTOR (HIGHEST SED50 ÷ LOWEST SED50) ([1]; day 4 to day 10): 3.56 | Mean % Parasitemia [1, 10]: 2.75% | Mean % Suppression [1, 10]: 47.6% | Mean % Parasitemia [1, 11]: 3.60% | Mean % Suppression [1, 11]: 50.7% | Mean % Parasitemia [1, 12]: 5.20% | Mean % Suppression [1, 12]: 44.1% | Mean % Parasitemia [1, 13]: 28.30% | Mean % Suppression [1, 13]: 20.3% | % died [1, 14]: 20% | % died [1, 15]: 60% | % died [1, 16]: 60% | Mean % Parasitemia [1, 17]: 1.50% | Mean % Suppression [1, 17]: 71.4% | Mean % Parasitemia [1, 18]: 1.90% | Mean % Suppression [1, 18]: 74.0% | Mean % Parasitemia [1, 19]: 4.10% | Mean % Suppression [1, 19]: 56.0% | Mean % Parasitemia [1, 20]: 24.28% | Mean % Suppression [1, 20]: 31.6% | % died [1, 21]: 20% | % died [1, 22]: 20% | % died [1, 23]: 40% | Mean % Parasitemia [1, 24]: 0% | Mean % Suppression [1, 24]: 100.0% | Mean % Parasitemia [1, 25]: 0% | Mean % Suppression [1, 25]: 100.0% | Mean % Parasitemia [1, 26]: 0% | Mean % Suppression [1, 26]: 100.0% | Mean % Parasitemia [1, 27]: 0% | Mean % Suppression [1, 27]: 100.0% | % died [1, 28]: 0% | % died [1, 29]: 0% | % died [1, 30]: 0% | Mean % Parasitemia [1, 31]: 5.00% | Mean % Suppression [1, 31]: 4.8% | Mean % Parasitemia [1, 32]: 7.20% | Mean % Suppression [1, 32]: 1.4% | Mean % Parasitemia [1, 33]: 9.20% | Mean % Suppression [1, 33]: 1.1% | Mean % Parasitemia [1, 34]: 35.40% | Mean % Suppression [1, 34]: 0.3% | % died [1, 35]: 20% | % died [1, 36]: 40% | % died [1, 37]: 80% | Mean % Parasitemia [1, 38]: 5.00% | Mean % Suppression [1, 38]: 4.8% | Mean % Parasitemia [1, 39]: 6.25% | Mean % Suppression [1, 39]: 14.4% | Mean % Parasitemia [1, 40]: 9.10% | Mean % Suppression [1, 40]: 2.2% | Mean % Parasitemia [1, 41]: 35.10% | Mean % Suppression [1, 41]: 1.1% | % died [1, 42]: 40% | % died [1, 43]: 60% | % died [1, 44]: 60% | Mean % Parasitemia [1, 45]: 4.75% | Mean % Suppression [1, 45]: 9.5% | Mean % Parasitemia [1, 46]: 6.00% | Mean % Suppression [1, 46]: 17.8% | Mean % Parasitemia [1, 47]: 8.30% | Mean % Suppression [1, 47]: 10.8% | Mean % Parasitemia [1, 48]: 33.40% | Mean % Suppression [1, 48]: 5.9% | % died [1, 49]: 20% | % died [1, 50]: 40% | % died [1, 51]: 80% | Mean % Parasitemia [1, 52]: 4.75% | Mean % Suppression [1, 52]: 9.5% | Mean % Parasitemia [1, 53]: 5.20% | Mean % Suppression [1, 53]: 28.8% | Mean % Parasitemia [1, 54]: 7.00% | Mean % Suppression [1, 54]: 24.7% | Mean % Parasitemia [1, 55]: 31.40% | Mean % Suppression [1, 55]: 11.5% | % died [1, 56]: 0% | % died [1, 57]: 20% | % died [1, 58]: 80%

[H]/N=C(\N/C(=N/[H])Nc1ccc(Cl)cc1)NC(C)C [chloroguanide]
excretion from the body [3]: rapidly excreted from the body when in its triazine form | usefulness in therapy [3]: little or no usefulness

CC1(C)N=C(N)N=C(N)N1c1ccc(Cl)cc1 [triazine metabolite of chloroquanide]
excretion from the body [3]: rapid excretion from the body | usefulness in therapy [3]: little or no usefulness in the therapy of humans and monkeys
